Data: patent publication US11072607B2, “Inhibitors of RIP1 kinase and methods of use thereof” (priority 2016, dated 2021)

Target: human RIP1 kinase domain (2-375) (Homo sapiens (Human), UniProt Q13546)
Assay: RIP1 kinase inhibition assay (biochemical, Transcreener ADP assay)
Conditions: tight-binding apparent inhibition constant (Ki app, Morrison equation); 50 nM enzyme, 50 uM ATP, 2 hours incubation, fluorescence polarization; read-out: RIP1 Ki
Description: Example 45: RIP1 Kinase Inhibition Assays (Biochemical Assay)
The compounds of the present invention were tested for their capacity to inhibit RIP1K activity as described below.
The ability of the receptor interacting protein kinase (RIPK1) to catalyze the hydrolysis of adenosine-5′-triphosphate (ATP) is monitored using the Transcreener ADP (adenosine-5′-diphosphate) assay (BellBrook Labs). Purified human RIP1 kinase domain (2-375) (50 nM) derived from a baculovirus-infected insect cell expression system is incubated with test compounds for 2 hours in 50 mM Hepes buffer (pH 7.5) containing 30 mM MgCl2, 1 mM dithiothreitol, 50 uM ATP, 0.002% Brij-35, and 0.5% dimethyl sulfoxide (DMSO). Reactions are quenched by the addition of 1× Bell Brooks Stop buffer B (20 mM Hepes (ph 7.5), 40 mM ethylenediaminetetraacetic acid and 0.02% Brij-35) containing an additional 12 mM EDTA and 55 ug/mL ADP2 antibody and 4 nM ADP-AlexaFluor® 633 tracer. The tracer bound to the antibody is displaced by the ADP generated during the RIP1K reaction, which causes a decrease in fluorescence polarization that is measured by laser excitation at 633 nm with a FP microplate reader M1000. Fractional activity was plotted against test article concentration. Using Genedata Screener software (Genedata; Basel, Switzerland), the data were fit to the tight-binding apparent inhibition constant (Ki^app) Morrison equation [Williams, J. W. and Morrison, J. F. (1979) The kinetics of reversible tight-binding inhibition. Methods Enzymol 63: 437-67]. The following equation was used to calculate fractional activity and Ki^app: […]
where [E]T and [I]T are the total concentrations of active enzyme and test article, respectively. […]

Sequence of human RIP1 kinase domain (2-375) (Q13546 2-375): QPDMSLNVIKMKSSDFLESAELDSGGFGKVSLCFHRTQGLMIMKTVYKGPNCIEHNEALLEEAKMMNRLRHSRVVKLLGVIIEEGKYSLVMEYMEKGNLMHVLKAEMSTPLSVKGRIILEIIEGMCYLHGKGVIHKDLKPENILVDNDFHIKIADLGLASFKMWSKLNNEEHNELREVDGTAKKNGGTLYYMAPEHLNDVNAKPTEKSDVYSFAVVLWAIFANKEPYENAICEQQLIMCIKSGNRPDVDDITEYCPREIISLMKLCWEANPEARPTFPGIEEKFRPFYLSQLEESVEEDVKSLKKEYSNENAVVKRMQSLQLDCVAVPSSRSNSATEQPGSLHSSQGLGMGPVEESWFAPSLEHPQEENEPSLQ

SMILES	Ki
CN1C(=O)[C@@H](NC(=O)c2nc3n(n2)C(c2ccccc2)CC3(F)F)COc2ccccc21 (stereo partly drawn) [Example #25, 7,7-difluoro-5-phenyl-N-[(3S)-5-methyl-4-oxo-2,3-dihydro-1,5-benzoxazepin-3-yl]-5,6-dihydropyrrolo[1,2-b][1,2,4]triazole-2-carboxamide]	33 nM
CN1C(=O)[C@@H](NC(=O)c2nc3n(n2)C(c2ccccc2)CC3F)CCn2nccc21 (stereo partly drawn) [Example #26, 7-fluoro-5-phenyl-N-[(6S)-4-methyl-5-oxo-7,8-dihydro-6H-pyrazolo[1,5-a][1,3]diazepin-6-yl]-6,7-dihydro-5H-pyrrolo[1,2-b][1,2,4]triazole-2-carboxamide]	49 nM

These reach a lower Ki. Values come first.

Ki	SMILES
22 nM	O=C(N[C@H]1CCc2cc(F)cc(F)c2NC1=O)c1nc2n(n1)C(c1ccccc1)CC2(F)F (stereo partly drawn) [Example #24, 7,7-difluoro-5-phenyl-N-[(3S)-7,9-difluoro-2-oxo-1,3,4,5-tetrahydro-1-benzazepin-3-yl]-5,6-dihydropyrrolo[1,2-b][1,2,4]triazole-2-carboxamide]
14 nM	O=C(N[C@H]1CCc2cc(F)cc(F)c2NC1=O)c1nc2n(n1)C(c1ccccc1)CC2F (stereo partly drawn) [Example #27, 7-fluoro-5-phenyl-N-[(3S)-7,9-difluoro-2-oxo-1,3,4,5-tetrahydro-1-benzazepin-3-yl]-6,7-dihydro-5H-pyrrolo[1,2-b][1,2,4]triazole-2-carboxamide]
12 nM	CN1C(=O)[C@@H](NC(=O)c2nc3n(n2)C(c2ccccc2)CC3F)COc2ccccc21 (stereo partly drawn) [Example #28, 7-fluoro-5-phenyl-N-[(3S)-5-methyl-4-oxo-2,3-dihydro-1,5-benzoxazepin-3-yl]-6,7-dihydro-5H-pyrrolo[1,2-b][1,2,4]triazole-2-carboxamide]
